#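 Exposure lasted 48 hours, with cells grown in 96-well plates and compounds tested at five concentrations. The concentration for 50% growth inhibition is given as GI50.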 The source made the active and inactive calls. Cut-off read from the data, not from the text of the source: active = GI50 up to about 1.1 µM and inactive = higher.
# Legend:
# Test in all cases: NCI anticancer screen, dose series, 48 h
# MDA-MB-435 = test system: MDA-MB-435
# PC-3 = test system: PC-3
# OVCAR-4 = test system: OVCAR-4
# SK-OV-3 = test system: SK-OV-3
# SNB-75 = test system: SNB-75
# UO-31 = test system: UO-31
# COLO 205 = test system: COLO 205
# SF-268 = test system: SF-268
# A498 = test system: A498
# HCT-15 = test system: HCT-15
# UACC-257 = test system: UACC-257
# SK-MEL-2 = test system: SK-MEL-2
# NCI/ADR-RES = test system: NCI/ADR-RES
# MCF7 = test system: MCF7
# DU-145 = test system: DU-145
# M14 = test system: M14
# HOP-92 = test system: HOP-92
# SN12C = test system: SN12C
# RPMI-8226 = test system: RPMI-8226
# SK-MEL-28 = test system: SK-MEL-28
SMILES,GI50 (MDA-MB-435),GI50 (PC-3),GI50 (OVCAR-4),GI50 (SK-OV-3),GI50 (SNB-75),GI50 (UO-31),GI50 (COLO 205),GI50 (SF-268),GI50 (A498),GI50 (HCT-15) [µM],GI50 (UACC-257),GI50 (SK-MEL-2),GI50 (NCI/ADR-RES),GI50 (MCF7),GI50 (DU-145),GI50 (M14),GI50 (HOP-92),GI50 (SN12C),GI50 (RPMI-8226),GI50 (SK-MEL-28)
CCCCCCCCCCCCCCCCOCC(COP(=O)(O)OCC1OC(n2cc(CC)c(=O)[nH]c2=O)CC1O)OC(=O)CCCCCCCCCCCCCCC (stereo not given),> 100 µM (inactive),> 100 µM (inactive),> 100 µM (inactive),> 100 µM (inactive),> 100 µM (inactive),> 100 µM (inactive),> 100 µM (inactive),> 100 µM (inactive),> 100 µM (inactive),> 100,> 100 µM (inactive),> 100 µM (inactive),> 100 µM (inactive),> 100 µM (inactive),> 100 µM (inactive),> 100 µM (inactive),> 100 µM (inactive),> 100 µM (inactive),> 100 µM (inactive),> 100 µM (inactive)
COc1ccc(C2(CC(C)O)SCCCS2)cc1 (stereo not given),> 100 µM (inactive),92.7 µM (inactive),> 100 µM (inactive),> 100 µM (inactive),> 100 µM (inactive),> 100 µM (inactive),> 100 µM (inactive),> 100 µM (inactive),> 100 µM (inactive),> 100,> 100 µM (inactive),> 100 µM (inactive),> 100 µM (inactive),> 100 µM (inactive),> 100 µM (inactive),> 100 µM (inactive),> 100 µM (inactive),> 100 µM (inactive),> 100 µM (inactive),> 100 µM (inactive)
CC(C)S(=O)(=O)ON1C(=O)c2ccc(N(C)C)cc2C1=O,2.04 µM (inactive),> 10 µM (inactive),17.7 µM (inactive),> 50.7 µM (inactive),19.6 µM (inactive),18.2 µM (inactive),2.86 µM (inactive),24 µM (inactive),> 43.7 µM (inactive),13.6,20.1 µM (inactive),4.01 µM (inactive),5.4 µM (inactive),5.93 µM (inactive),> 10 µM (inactive),17.2 µM (inactive),7.35 µM (inactive),16.9 µM (inactive),2.58 µM (inactive),21.4 µM (inactive)
O=C1c2ccccc2-c2c1c1ccccc1c(=O)n2-c1ccccc1,> 100 µM (inactive),> 81.5 µM (inactive),2.86 µM (inactive),13.2 µM (inactive),13.1 µM (inactive),5.64 µM (inactive),> 46.5 µM (inactive),9.1 µM (inactive),16.6 µM (inactive),27.9,> 82.4 µM (inactive),20.4 µM (inactive),5.48 µM (inactive),19.3 µM (inactive),59.7 µM (inactive),47.2 µM (inactive),26.9 µM (inactive),16.4 µM (inactive),> 100 µM (inactive),> 100 µM (inactive)
